According to patent US7767789B2, “Truncated proteins as cancer markers” (University Hopitals of Cleveland, priority 2005, dated 2010):

Tests used:
[1] = tested on: HeLa cells; test: Cell selection: growth with BzATP and immunoblot of P2X7/P2X7-j protein, HeLa; type: cell-based, human; conditions: 50 micromolar BzATP, seven days
Procedure: Growth of various cell lines expressing P2X7 and/or P2X7-j in the presence or absence of BzATP was performed to determine how P2X7 receptors may affect cell selection over time. FIG. 23. HEK-293 cells expressing P2X7, HEK-293 cells expressing P2X7-j, or HeLa cells, which express both P2X7 and P2X7-j were separately grown in culture, in the presence or absence of 50 micromolar BzATP for seven (7) days. At various time points, samples of the cells were taken and examined for expression of P2X7 and/or P2X7-j protein by immunoblotting using a P2X7-specific antibody. This antibody was obtained from Alomone Labs (Jerusalem, Israel) and was reactive with the extracellular domain of P2X7 protein. Amino acids 136-152 of the mouse P2X7 receptor ([…]; (SEQ ID NO:7)) were used as the antigen to prepare the antibody. A labeled secondary antibody was used to visualize reactive protein bands. By layering equal amounts of total protein (15 micrograms) it was possible to compare the relative expression of the P2X7 and/or P2X7-j proteins by the cells.

[2] = molecular target: T1, P2X7 channel (MDCK cells expressing P2X7 or P2X7-j) (Homo sapiens, UniProt Q99572, R270H/Y155H); test: BzATP-stimulated channel activation (Fluo-4 calcium), MDCK cells; type: cell-based; conditions: MDCK-P2X7 cells; 100 micromolar BzATP
T1 construct: expressed in transfected cells; host or cells: MDCK (canine kidney), doxycycline-inducible promoter
Procedure: (§1) 2′-3′-O-(4-benzoyl-benzoyl)adenosine 5′-triphosphate (BzATP) stimulated channel activation of P2X7 and P2X7-j was determined. FIG. 11. As discussed earlier, activation of P2X7 receptors provides influx of selected cations through the ATP-activated channel provided by the P2X7 protein. MDCK or HEK-293 cells expressing either P2X7 or P2X7-j were loaded with the calcium-sensitive dye Fluo-4 and treated with 100 micromolar of BzATP. Calcium entry into the cells via the P2X7 channel after BzATP activation was measured in terms of changes in Fluo-4 fluorescence.
(§2) A quantification of the changes in cytosolic calcium after BzATP exposure provided data that was similar to that presented in FIG. 11. FIG. 12.

[3] = molecular target: T2, P2X7 channel (MDCK cells expressing P2X7 or P2X7-j) (Homo sapiens, UniProt Q99572, Y155H); test: as above; type: cell-based; conditions: MDCK-P2X7-j cells compared to MDCK-P2X7 cells
T2 construct: expressed in transfected cells; host or cells: MDCK (canine kidney), doxycycline-inducible promoter
Procedure: as §1, §2

[4] = molecular target: T3, P2X7-mediated pore (MDCK cells expressing P2X7 or P2X7-j) (Homo sapiens, UniProt Q99572, R270H/Y155H); test: BzATP-stimulated pore activation (ethidium bromide entry), MDCK cells; type: cell-based; conditions: doxycycline-treated MDCK-P2X7 cells; BzATP 100 micromolar
T3 construct: expressed in transfected cells; host or cells: MDCK (canine kidney), doxycycline-inducible promoter
Procedure: (§3) BzATP-stimulated pore activation of P2X7 and P2X7-j receptor proteins was also determined. FIG. 13. MDCK cells or HEK-293 cells expressing either P2X7 or P2X7-j were treated with BzATP in the presence of ethidium bromide. Fluorescence of ethidium bromide was measured after BzATP activation (100 micromolar) as a measure of ethidium bromide entry into the cells via the P2X7-mediated pore. Results in seven Panels (A-G) each composed of 30 exposures of cells placed on a glass slide. The direction of the pictures in each Panel is left to right, and then up-down. […] FIG. 13, Panel B and Panel F, respectively.
(§4) A quantification of the changes in ethidium bromide signaling from experiments similar to those in FIG. 13 was then calculated. FIG. 14.

[5] = molecular target: T4, P2X7-mediated pore (MDCK cells expressing P2X7 or P2X7-j) (Homo sapiens, UniProt Q99572, Y155H); test: as above; type: cell-based; conditions: doxycycline-treated MDCK-P2X7-j cells compared to MDCK-P2X7 cells
T4 construct: expressed in transfected cells; host or cells: MDCK (canine kidney), doxycycline-inducible promoter
Procedure: as §3, §4

[6] = tested on: β-arrestin-2-GFP in CaSki cells; test: Real-time confocal microscopy of β-arrestin-2-GFP, CaSki cells; type: cell-based, human; conditions: CaSki transfected with β-arrestin-2-GFP; not shown
Procedure: CaSki cells transfected with the β-arrestin-2-GFP, or HEK-293 cells co-transfected with the full-length human P2X7-receptor and the β-arrestin-2-GFP were plated on 35-mm glass-bottom culture dishes (MatTek Corporation, Ashland, MA). Dishes contained a centered, 1 cm well formed from a glass coverslip sealed hole in the plastic. Two hours before experiments the medium was replaced with serum-free medium supplemented with 10 mM HEPES. The distribution of the β-arrestin-2-GFP was visualized before and after treatment with the agonist by real-time confocal microscopy. Imaging of the β-arrestin-2-GFP fluorescence in the same cells was performed on a Zeiss laser-scanning confocal microscope (LSM-510) using a heated (37° C.) microscope stage. Barak et al., “A beta-arrestin/green fluorescent protein biosensor for detecting G protein-coupled receptor activation” J Biol Chem 272:27497-27500 (1997).
Images were collected sequentially before and after treatment with agonist for 0-30 min at 37° C. using single line excitation (488 nm).

[7] = tested on: CaSki cells; test: DNA solubilization assay (apoptosis); type: cell-based, human
Procedure: Twenty-four hours before the end of the experiment, cells were labeled with [^3H]thymidine (specific activity, 93 Ci/mmol; 5 μCi/1×10^6 cells) for 16 h. The medium was removed, and cells were washed three times with fresh medium lacking [^3H]thymidine and were incubated in the same medium for an additional 6 h. At the end of incubation, the supernatant was stored, and cells were lysed in 0.5 ml lysis buffer (10 mM Tris-HCl, pH 7.5; plus 1 mM EDTA-0.2% Triton X-100) for 1 h at 4° C. The intact chromatin was separated from the fragmented DNA by 5 min centrifugation at 4° C. in Eppendorf microcentrifuge at 12,000×g. The supernatant (lysate) was stored, while the pellet was resuspended in 0.5 ml of 1% sodium dodecyl sulfate (SDS). The radioactivity contained in the supernatants, lysates; and pellets was counted in a scintillation counter, and DNA fragmentation was calculated as: [% Solubilized DNA]=([cpm supernatant+cpm lysates]/[cpm supernatant+cpm lysate+cpm pellet])×100.

T2 sequence (Q99572 1-258 isoform Q99572-9 Y155H): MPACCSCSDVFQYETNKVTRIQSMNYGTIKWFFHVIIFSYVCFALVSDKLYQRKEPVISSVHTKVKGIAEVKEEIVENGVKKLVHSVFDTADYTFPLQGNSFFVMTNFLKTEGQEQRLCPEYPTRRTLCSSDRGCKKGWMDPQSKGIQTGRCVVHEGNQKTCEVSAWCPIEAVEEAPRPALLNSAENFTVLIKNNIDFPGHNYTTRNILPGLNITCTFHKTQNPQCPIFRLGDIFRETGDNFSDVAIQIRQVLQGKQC
T4 sequence (Q99572 1-258 isoform Q99572-9 Y155H): as above
T1 sequence (Q99572 whole entry Y155H/R270H): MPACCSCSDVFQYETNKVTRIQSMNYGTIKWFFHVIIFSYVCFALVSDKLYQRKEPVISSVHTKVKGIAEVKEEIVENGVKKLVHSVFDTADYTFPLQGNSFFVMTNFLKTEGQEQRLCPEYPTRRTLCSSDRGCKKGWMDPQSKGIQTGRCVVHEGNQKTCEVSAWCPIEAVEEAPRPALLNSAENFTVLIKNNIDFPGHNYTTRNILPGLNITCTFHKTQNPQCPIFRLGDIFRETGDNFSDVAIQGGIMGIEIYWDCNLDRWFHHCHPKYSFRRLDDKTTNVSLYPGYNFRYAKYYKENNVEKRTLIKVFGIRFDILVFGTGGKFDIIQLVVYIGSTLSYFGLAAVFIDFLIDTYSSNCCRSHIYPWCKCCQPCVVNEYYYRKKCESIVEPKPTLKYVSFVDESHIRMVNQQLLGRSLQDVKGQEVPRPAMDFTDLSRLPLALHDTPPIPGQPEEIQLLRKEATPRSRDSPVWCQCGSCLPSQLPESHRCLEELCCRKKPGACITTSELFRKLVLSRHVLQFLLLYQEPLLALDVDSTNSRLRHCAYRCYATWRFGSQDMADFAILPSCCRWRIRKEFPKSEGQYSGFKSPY
T3 sequence (Q99572 whole entry Y155H/R270H): as above

In the case of “2′-3′-O-(4-benzoylbenzoyl)adenosine 5′-triphosphate [BzATP]”, the “expression of P2X7 protein” value [1] is reported as “significantly decreased”, the “expression of the P2X7-j protein” value [1] is reported as “remained stable” and the “Fluo-4 signal (cytosolic calcium)” value [2] is reported as “increased acutely the Fluo-4 signal”. The “calcium response to BzATP” value [3] was “significantly smaller”, the “ethidium bromide signaling (pore)” value [4] was “increased ethidium bromide signaling” and the “ethidium bromide signaling response to BzATP” value [5] was “significantly smaller”. For the same substance, the “re-distribution of GFP fluorescence towards cell periphery” value [6] was “A similar effect was observed”, the DNA solubilization ([7]; 100 μM BzATP for 9 h, baseline 1.9%) was 7.8% and the DNA solubilization ([7]; 100 μM BzATP for 9 h or 10 μM TNFα for 14 h) was “significantly increased DNA solubilization”.
